Data as given in PMC10180054, “Design, Synthesis and Biological Evaluation of Novel Pleuromutilin Derivatives Containing 6-Chloro-1-R-1H-pyrazolo[3,4-d]pyrimidine-4-amino Side Chain” (Molecules, 2023).
Values after ≈ are worked out from the molar mass of the structure shown.

Legend:
MRSA ATCC 43300 = experiment: MIC/MBC by broth dilution (CLSI); assay type: cell-based, Staphylococcus aureus; conditions: Staphylococcus aureus; for MBC: MRSA ATCC 43300, 99.9% of the bacteria killed; for MIC: MRSA ATCC 43300, broth dilution, 24 h, 37 °C, read-out: MIC
Experimental: (§1) The in vitro antimicrobial activity of the pleuromutilin derivatives was assessed against MRSA ATCC 43300, S. aureus ATCC 29213, S. aureus 144 and S. aureus AD3 according to the Clinical and Laboratory Standards Institute (CLSI). Tiamulin was used as a positive control drug. The results were summarized as the minimum inhibitory concentration (MIC) and the minimum bactericidal concentration (MBC) in Table 1 and Table 2. In addition, MIC results for the pleuromutilin derivatives against four Gram-negative bacteria are supplied in Tables S2 and S3.
(§2) The MIC and MBC values of the synthesized novel pleuromutilin derivatives against MRSA ATCC 43300, S. aureus ATCC 29213, S. aureus 144 and S. aureus AD3 were measured. Tiamulin was used as a positive control drug. The MIC and MBC values were manipulated by broth dilution according to the Clinical and Laboratory Standards (CLSI). Each compound to be measured was dissolved in a solution of 95% deionized water, 2.5% dimethyl sulfoxide (DMSO) and 2.5% Tween-80 with a concentration of 1280 µg/mL. Subsequently, serial twofold dilutions were made in a concentration range from 64 µg/mL to 0.0625 µg/mL. The working bacterial suspension was inoculated into each well, which provided the final inoculum density of 5 × 10^5 CFU/mL. Three parallel experiments were performed for each compound.
(§3) Overall, 25 µL of the bacterial solution from the wells with no obvious bacterial growth was inoculated on MH agar plates. Then, the inoculated MH agar plates were further cultured at 37 °C for 24 h.

S. aureus 144 = experiment: MIC/MBC by broth dilution (CLSI); assay type: cell-based; conditions: Staphylococcus aureus; S. aureus 144 (clinical strain)
Experimental: as §1, §2, §3

S. aureus AD3 = experiment: MIC/MBC by broth dilution (CLSI); assay type: cell-based; conditions: Staphylococcus aureus, S. aureus AD3 (clinical strain)
Experimental: as §1, §2, §3

S. aureus ATCC 29213 = experiment: MIC/MBC by broth dilution (CLSI); assay type: cell-based; conditions: Staphylococcus aureus, ATCC29213; for MBC: S. aureus ATCC 29213; for MIC: S. aureus ATCC 29213, broth dilution, 24 h, 37 °C
Experimental: as §1, §2, §3

Row | MIC (MRSA ATCC 43300) [µg/mL] | MIC (S. aureus 144) [µg/mL] | MIC (S. aureus AD3) [µg/mL] | MIC (S. aureus ATCC 29213) [µg/mL] | melting point [°C] | MIC (S. aureus AD3; 24 h) [µg/mL] | Compound | MBC (MRSA ATCC 43300) [µg/mL] | MBC (S. aureus 144) [µg/mL] | MBC (S. aureus AD3) [µg/mL] | MBC (S. aureus ATCC 29213) [µg/mL] | MBC (S. aureus AD3; 24 h) [µg/mL]
1 | 8 (≈ 12.9 µM) | 8 (≈ 12.9 µM) | 4 (≈ 6.45 µM) | 8 (≈ 12.9 µM) | 97 to 99 | – | C=C[C@]1(C)C[C@@H](OC(=O)CNc2nc(Cl)nc3c2cnn3-c2cccc(C)c2)[C@]2(C)[C@H](C)CC[C@]3(CCC(=O)[C@H]32)[C@@H](C)[C@@H]1O [Compound 12b, 22-[(6-Chloro-1-(3-methylphenyl)-1H-pyrazolo[3,4-d]pyrimidine-4-yl)amino]-22-deoxypleuromutilin] | 32 (≈ 51.6 µM) | 32 (≈ 51.6 µM) | 16 (≈ 25.8 µM) | 32 (≈ 51.6 µM) | –
2 | 16 (≈ 25.8 µM) | 32 (≈ 51.6 µM) | 16 (≈ 25.8 µM) | 32 (≈ 51.6 µM) | – | – | C=C[C@]1(C)C[C@@H](OC(=O)CNc2nc(Cl)nc3c2cnn3-c2ccc(C)cc2)[C@]2(C)[C@H](C)CC[C@]3(CCC(=O)[C@H]32)[C@@H](C)[C@@H]1O [Compound 13b, 22-[(6-Chloro-1-(4-methylphenyl)-1H-pyrazolo[3,4-d]pyrimidine-4-yl)amino]-22-deoxypleuromutilin] | 32 (≈ 51.6 µM) | > 64 | > 64 | > 64 | –
3 | 8 (≈ 11 µM) | 16 (≈ 22 µM) | – | 8 (≈ 11 µM) | 101 to 105 | 4 (≈ 5.49 µM) | C=C[C@]1(C)C[C@@H](OC(=O)CSc2ccc(Nc3nc(Cl)nc4c3cnn4-c3ccc(C)cc3)cc2)[C@]2(C)[C@H](C)CC[C@]3(CCC(=O)[C@H]32)[C@@H](C)[C@@H]1O [Compound 13c, 22-[4-(6-Chloro-1-(4-methylphenyl)-1H-pyrazolo[3,4-d]pyrimidine-4-yl)amino-phenylsulfanyl]-22-deoxypleuromutilin] | > 64 | > 64 | – | > 64 | > 64
4 | 16 (≈ 25.2 µM) | 16 (≈ 25.2 µM) | 16 (≈ 25.2 µM) | 16 (≈ 25.2 µM) | 99 to 103 | – | C=C[C@]1(C)C[C@@H](OC(=O)CNc2nc(Cl)nc3c2cnn3-c2ccc(C)c(C)c2)[C@]2(C)[C@H](C)CC[C@]3(CCC(=O)[C@H]32)[C@@H](C)[C@@H]1O [Compound 14b, 22-[(6-Chloro-1-(3,4-dimethylphenyl)-1H-pyrazolo[3,4-d]pyrimidine-4-yl)amino]-22-deoxypleuromutilin] | > 64 | > 64 | > 64 | > 64 | –
5 | > 64 | > 64 | > 64 | > 64 | 103 to 105 | – | C=C[C@]1(C)C[C@@H](OC(=O)CSc2ccc(Nc3nc(Cl)nc4c3cnn4-c3ccc(C)c(C)c3)cc2)[C@]2(C)[C@H](C)CC[C@]3(CCC(=O)[C@H]32)[C@@H](C)[C@@H]1O [Compound 14c, 22-[4-(6-Chloro-1-(3,4-dimethylphenyl)-1H-pyrazolo[3,4-d]pyrimidine-4-yl)amino-Phenylsulfanyl]-22-deoxypleuromutilin] | – | – | – | – | –
6 | > 64 | > 64 | > 64 | > 64 | 95 to 100 | – | C=C[C@]1(C)C[C@@H](OC(=O)CNc2nc(Cl)nc3c2cnn3-c2cc(C)cc(C)c2)[C@]2(C)[C@H](C)CC[C@]3(CCC(=O)[C@H]32)[C@@H](C)[C@@H]1O [Compound 15b, 22-[(6-Chloro-1-(3,5-dimethylphenyl)-1H-pyrazolo[3,4-d]pyrimidine-4-yl)amino]-22-deoxypleuromutilin] | – | – | – | – | –
7 | > 64 | > 64 | > 64 | > 64 | 92 to 95 | – | C=C[C@]1(C)C[C@@H](OC(=O)CSc2ccc(Nc3nc(Cl)nc4c3cnn4-c3cc(C)cc(C)c3)cc2)[C@]2(C)[C@H](C)CC[C@]3(CCC(=O)[C@H]32)[C@@H](C)[C@@H]1O [Compound 15c, 22-[4-(6-Chloro-1-(3,5-dimethylphenyl)-1H-pyrazolo[3,4-d]pyrimidine-4-yl)amino-Phenylsulfanyl]-22-deoxypleuromutilin] | – | – | – | – | –
8 | 32 (≈ 50.5 µM) | 32 (≈ 50.5 µM) | 16 (≈ 25.2 µM) | 32 (≈ 50.5 µM) | 101 to 103 | – | C=C[C@]1(C)C[C@@H](OC(=O)CNc2nc(Cl)nc3c2cnn3-c2ccc(CC)cc2)[C@]2(C)[C@H](C)CC[C@]3(CCC(=O)[C@H]32)[C@@H](C)[C@@H]1O [Compound 16b, 22-[(6-Chloro-1-(4-ethylphenyl)-1H-pyrazolo[3,4-d]pyrimidine-4-yl)amino]-22-deoxypleuromutilin] | > 64 | > 64 | > 64 | > 64 | –
9 | > 64 | > 64 | > 64 | > 64 | 97 to 99 | – | C=C[C@]1(C)C[C@@H](OC(=O)CSc2ccc(Nc3nc(Cl)nc4c3cnn4-c3ccc(CC)cc3)cc2)[C@]2(C)[C@H](C)CC[C@]3(CCC(=O)[C@H]32)[C@@H](C)[C@@H]1O [Compound 16c, 22-[4-(6-Chloro-1-(4-ethylphenyl)-1H-pyrazolo[3,4-d]pyrimidine-4-yl)amino-Phenylsulfanyl]-22-deoxypleuromutilin] | – | – | – | – | –
10 | > 64 | > 64 | > 64 | > 64 | 99 to 104 | – | C=C[C@]1(C)C[C@@H](OC(=O)CNc2nc(Cl)nc3c2cnn3-c2cccc(OC)c2)[C@]2(C)[C@H](C)CC[C@]3(CCC(=O)[C@H]32)[C@@H](C)[C@@H]1O [Compound 17b, 22-[(6-Chloro-1-(3-methoxyphenyl)-1H-pyrazolo[3,4-d]pyrimidine-4-yl)amino]-22-deoxypleuromutilin] | – | – | – | – | –
11 | > 64 | > 64 | > 64 | > 64 | 97 to 102 | – | C=C[C@]1(C)C[C@@H](OC(=O)CSc2ccc(Nc3nc(Cl)nc4c3cnn4-c3cccc(OC)c3)cc2)[C@]2(C)[C@H](C)CC[C@]3(CCC(=O)[C@H]32)[C@@H](C)[C@@H]1O [Compound 17c, 22-[4-(6-Chloro-1-(3-methoxyphenyl)-1H-pyrazolo[3,4-d]pyrimidine-4-yl)amino-Phenylsulfanyl]-22-deoxypleuromutilin] | – | – | – | – | –
12 | > 64 | > 64 | > 64 | > 64 | 107 to 110 | – | C=C[C@]1(C)C[C@@H](OC(=O)CNc2nc(Cl)nc3c2cnn3-c2ccccc2F)[C@]2(C)[C@H](C)CC[C@]3(CCC(=O)[C@H]32)[C@@H](C)[C@@H]1O [Compound 18b, 22-[(6-Chloro-1-(2-fluorophenyl)-1H-pyrazolo[3,4-d]pyrimidine-4-yl)amino]-22-deoxypleuromutilin] | – | – | – | – | –
13 | > 64 | > 64 | > 64 | > 64 | 123 to 127 | – | C=C[C@]1(C)C[C@@H](OC(=O)CSc2ccc(Nc3nc(Cl)nc4c3cnn4-c3ccccc3F)cc2)[C@]2(C)[C@H](C)CC[C@]3(CCC(=O)[C@H]32)[C@@H](C)[C@@H]1O [Compound 18c, 22-[4-(6-Chloro-1-(2-fluorophenyl)-1H-pyrazolo[3,4-d]pyrimidine-4-yl)amino-Phenylsulfanyl]-22-deoxypleuromutilin] | – | – | – | – | –
14 | 16 (≈ 25.6 µM) | 32 (≈ 51.3 µM) | – | 16 (≈ 25.6 µM) | 112 to 115 | 8 (≈ 12.8 µM) | C=C[C@]1(C)C[C@@H](OC(=O)CNc2nc(Cl)nc3c2cnn3-c2ccc(F)cc2)[C@]2(C)[C@H](C)CC[C@]3(CCC(=O)[C@H]32)[C@@H](C)[C@@H]1O [Compound 19b, 22-[(6-Chloro-1-(4-fluorophenyl)-1H-pyrazolo[3,4-d]pyrimidine-4-yl)amino]-22-deoxypleuromutilin] | > 64 | > 64 | – | > 64 | > 64
15 | > 64 | > 64 | > 64 | > 64 | 123 to 125 | – | C=C[C@]1(C)C[C@@H](OC(=O)CNc2nc(Cl)nc3c2cnn3-c2ccc(F)cc2F)[C@]2(C)[C@H](C)CC[C@]3(CCC(=O)[C@H]32)[C@@H](C)[C@@H]1O [Compound 20b, 22-[(6-Chloro-1-(2,4-difluorophenyl)-1H-pyrazolo[3,4-d]pyrimidine-4-yl)amino]-22-deoxypleuromutilin] | – | – | – | – | –
16 | > 64 | > 64 | > 64 | > 64 | – | – | C=C[C@]1(C)C[C@@H](OC(=O)CNc2nc(Cl)nc3c2cnn3-c2ccc(OC(F)(F)F)cc2)[C@]2(C)[C@H](C)CC[C@]3(CCC(=O)[C@H]32)[C@@H](C)[C@@H]1O [Compound 23b, 22-[(6-Chloro-1-(4-(trifluoromethoxy)Phenyl)-1H-pyrazolo[3,4-d]pyrimidine-4-yl)amino]-22-deoxypleuromutilin] | – | – | – | – | –
17 | 0.0015 (≈ 0.00309 µM) | 0.003 (≈ 0.00618 µM) | – | 0.0015 (≈ 0.00309 µM) | – | 0.0015 (≈ 0.00309 µM) | C=CC1(C)CC(OC(=O)CSc2ccc(N)cc2)C2(C)C(C)CCC3(CCC(=O)C32)C(C)C1O (stereo not shown) [Compound 32, 22-(4-Amino-phenylsulfanyl)deoxypleuromutilin] | – | – | – | – | –
